# Experimental data from EPA's ToxValDB 9.5.
# How the values were obtained:
# [1] = test system: Rattus norvegicus; conditions: for LD50: acute, mortality
# [2] = test system: Anas platyrhynchos; conditions: oral, mortality
# [3] = test system: Oryctolagus sp.
# [4] = test system: Pontoscolex corethrurus; conditions: acute; mortality
# [5] = test system: Daphnia magna; conditions: for NOEC: chronic/long-term, duration: 21 days
# [6] = test system: Gallus gallus; conditions: subchronic; duration: 56 days; oral; diet; F; no effects
# [7] = test system: Homo sapiens; conditions: clinical
# [8] = test system: Chrysoperla externa; assay: LR50; higher = less toxic; conditions: not reported; duration: 34 days; mortality
# [9] = test system: Tagia sp.; conditions: acute; duration: 14 days; mortality
# [10] = test system: Aphidius rhopalosiphi; conditions: not reported; mortality
# [11] = test system: Bibionidae; conditions: chronic/long-term, duration: 28 days
# [12] = test system: Apis mellifera; conditions: acute, mortality
# [13] = test system: Oncorhynchus mykiss
# [14] = test system: Zea sp.; conditions: acute; duration: 22 days; biomass
# [15] = test system: Cyprinus carpio
# [16] = test system: Mus musculus; conditions: repeat dose other
# [17] = test system: Colinus virginianus; conditions: for LD50: acute, oral, mortality
# [18] = test system: Aphidius colemani; assay: LR50; higher = less toxic; conditions: not reported; mortality
# [19] = subchronic, duration: 90 days, oral
# [20] = acute, duration: 96 hours, mortality
# [21] = chronic/long-term, duration: 28 days, growth
# [22] = reproduction developmental, no effects
structure (smiles),measurement,setting,value
"NC(Cc1ncn[nH]1)C(=O)O (stereo unspecified) [1,2,4-Triazole-3-alanine]",LD50,[1]; oral,> 5000 mg/kg-day
same,NOAEL,[1]; chronic,100 mg/kg-day
same,NOAEL,"[1]; developmental, development",100 mg/kg-day
same,LC50,"[2]; short-term, duration: 5 days, feed",> 1340 mg/kg-day
same,NOAEL,"[3]; developmental, development",30 mg/kg-day
CCc1nccnc1C(C)=O [1-(3-Ethylpyrazinyl)ethan-1-one],LC50,[4],360 mg/kg
"CSCSSC [2,3,5-Trithiahexane]",NOEL,"[1]; subchronic, duration: 13 weeks, oral, diet",0.3 mg/kg-day
same,NOAEL,[1]; [19],0.23 mg/kg-day
same,NOAEL,[19],0.23 mg/kg-day
"CCc1nccnc1CC [2,3-Diethylpyrazine]",LC50,[4],236 mg/kg
"Cc1cc(SC(=O)CC(C)C)c(C)o1 [2,5-Dimethyl-3-thioisovalerylfuran]",NOAEL,"[1]; subchronic, duration: 90 days",0.73 mg/kg-day
same,NOAEL,"subchronic, duration: 90 days",0.73 mg/kg-day
CCc1occc(=O)c1O [2-Ethyl-3-hydroxy-4-pyrone],NOAEL,repeat dose other,200 mg/kg-day
Cc1csc(C(C)C)n1 [2-Isopropyl-4-methylthiazole],LC50,"[5]; acute, mortality",9 mg/L
same,LC50,[4],194 mg/kg
COc1nccnc1C [2-Methoxy-3-methylpyrazine],LC50,[4],245 mg/kg
c1csc(SSc2cccs2)c1 [2-Thienyl disulfide],NOAEL,"[1]; subchronic, duration: 90 days",0.29 mg/kg-day
same,NOAEL,repeat dose other,0.29 mg/kg-day
"CCCC/C=C\CCO [3-Octen-1-ol, (3Z)-]",LC50,[4],194 mg/kg
CC(=O)C(C)Sc1ccoc1C (stereo unspecified) [3-[(2-Methylfuran-3-yl)sulfanyl]butan-2-one],NOAEL,"[1]; subchronic, duration: 90 days, oral, diet",3.76 mg/kg-day
same,NOAEL,"subchronic, duration: 90 days",3.76 mg/kg-day
"CCOC(=O)/C(C)=C/C=C/C(C)=C/C=C/C=C(C)/C=C/C=C(C)/C=C/C1=C(C)CCCC1(C)C [8'-Apo-beta, psi-carotenoid acid, ethyl ester]",NOAEL,"[1]; subchronic, histopathology: nonneoplastic",3 mg/kg-day
same,LEL,[6],80 mg/kg-day
CN1CCC[C@H]1c1cccnc1 [(-)-Nicotine],LOAEL,"[7]; injection, intravenous, clinical signs",0.0035 mg/kg-day
C/C=C(\C)C(=O)O[C@H]1C[C@@H](OC(C)=O)[C@@]2(C(=O)OC)CO[C@H]3[C@@H](O)[C@@](C)([C@]45O[C@@]4(C)[C@H]4C[C@@H]5O[C@@H]5OC=C[C@@]54O)[C@H]4[C@]1(CO[C@]4(O)C(=O)OC)[C@@H]32 [Azadirachtin],LR50,[8],0.77 g/ha
same,LC50,[9],> 1000 mg/kg
same,LEL,[10],57.6 g/ha
same,NOEC,[5]; reproduction,0.038 mg/L
same,NOEC,[11],0.0016 mg/L
same,NOEC,[11]; development,0.0016 mg/L
same,LD50,[12]; dermal,> 11.8 µg/piece
same,LD50,"[12]; duration: 48 hours, oral, unspecified",> 8.1 µg/piece
same,LD50,"[12]; oral, unspecified",> 8.1 µg/piece
same,LC50,[13]; [20],0.048 mg/L
same,NOEC,[13]; [21],0.0047 mg/L
same,LEL,[14],30.9 g/ha
CC(=O)[O-].CC(=O)[O-].O.O.O.O.[Co+2] [Cobalt(II) acetate tetrahydrate],LOAEL,"[7]; duration: 22 days, oral, hematological",1 mg/kg-day
COCCOC(=O)C(C#N)(C(=O)c1ccccc1C(F)(F)F)c1ccc(C(C)(C)C)cc1 (stereo unspecified) [Cyflumetofen],NOEC,[5]; mortality,0.065 mg/L
same,NOEC,[11]; development,≥ 0.064 mg/L
same,LC50,[15]; [20],> 0.54 mg/L
same,NOEC,[15]; [21],≥ 0.072 mg/L
C=C(C)[C@H]1CC=C(C)CC1 [D-Limonene],NOAEL,[16]; gross pathology,250 mg/kg-day
same,NOAEL,"[16]; injection, intraperitoneal",215 mg/kg-day
same,NOAEL,"[1]; repeat dose other, histopathology: nonneoplastic",250 mg/kg-day
Fc1ccc([C@@]2(Cn3cncn3)O[C@@H]2c2ccccc2Cl)cc1 [Epoxiconazole],LD50,[17]; diet,> 907 mg/kg
same,LD50,[17],> 2000 mg/kg
same,NOEL,[17]; reproduction developmental,1 mg/kg-day
same,LD50,[1],3160 mg/kg
same,NOAEL,[1]; reproduction developmental,2.3 mg/kg-day
OC[C@@H](O)[C@@H](O)CO [Erythritol],NOAEL,"[7]; duration: 27 months, oral, drinking water, clinical signs",710 mg/kg-day
NC=O [Formamide],NOAEL,"[3]; reproduction developmental, duration: 13 days, oral, gavage, F, New Zealand, reproduction",34 mg/kg-day
CCOP(=O)=O.CCOP(=O)=O.CCOP(=O)=O.[Al+3] [Fosetyl aluminum],NOEC,"[17]; reproduction developmental, reproduction",216 mg/kg-day
same,NOAEL,"[1]; short-term, histopathology: nonneoplastic",500 mg/kg-day
C=C1C[C@]23C[C@@]1(O)CC[C@H]2[C@@]12C=C[C@H](O)[C@@](C)(C(=O)O1)[C@H]2[C@@H]3C(=O)O [Gibberellic acid],LR50,[18],> 10 g/ha
same,LD50,[12]; dermal,> 25 µg/piece
same,LD50,[17]; diet,> 904 mg/kg-day
same,LD50,[1]; oral,> 5000 mg/kg
same,NOEL,[1]; [22],1000 mg/kg-day
same,NOAEL,"[1]; subchronic, duration: 90 days, oral, organ weight",680 mg/kg-day
same,LD50,"[2]; acute, unspecified",> 2000 mg/kg
same,NOEL,[3]; [22],1000 mg/kg-day
